Reference: PubChem BioAssay AID1845215 (Molecular Pharmacology Branch, DTP, NCI, 2023)

Tested on: SW 1271 complex tumor spheroid viability
Experiment: Anticancer human tumor SW 1271 cell line growth inhibition;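 further: spheroids exposed to agents for seven days before readout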;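 on viability, T/C: percent of DMSO vehicle control luminescence so 100% = vehicle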
Conditions: for IC50: curve of first compound; for viability, T/C: stronger effect = lower value
How it was run: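 Complex tumor spheroids combined malignant cells with endothelial cells and mesenchymal stem cells. DNA-damaging drugs and DNA repair inhibitors were tested alone and in combination, at half-log dilutions down from clinical Cmax (top 10 microM if Cmax unknown), 0.25% DMSO final.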

[1] = second compound 0.003 µM, first compound 0.0316 µM
[2] = second compound 0.003 µM, first compound 0.1 µM
[3] = second compound 0.003 µM, first compound 0.316 µM
[4] = second compound 0.003 µM, first compound 1 µM
[5] = second compound 0.003 µM, first compound 3.16 µM
[6] = second compound 0.003 µM, first compound 10 µM
[7] = second compound 0.00949 µM, first compound 0.0316 µM
[8] = second compound 0.00949 µM, first compound 0.1 µM
[9] = second compound 0.00949 µM, first compound 0.316 µM
[10] = second compound 0.00949 µM, first compound 1 µM
[11] = second compound 0.00949 µM, first compound 3.16 µM
[12] = second compound 0.00949 µM, first compound 10 µM
[13] = second compound 0.03 µM, first compound 0.0316 µM
[14] = second compound 0.03 µM, first compound 0.1 µM
[15] = second compound 0.03 µM, first compound 0.316 µM
[16] = second compound 0.03 µM, first compound 1 µM
[17] = second compound 0.03 µM, first compound 3.16 µM
[18] = second compound 0.03 µM, first compound 10 µM
[19] = second compound 0.0949 µM, first compound 0.0316 µM
[20] = second compound 0.0949 µM, first compound 0.1 µM
[21] = second compound 0.0949 µM, first compound 0.316 µM
[22] = second compound 0.0949 µM, first compound 1 µM
[23] = second compound 0.0949 µM, first compound 3.16 µM
[24] = second compound 0.0949 µM, first compound 10 µM
[25] = second compound 0.3 µM, first compound 0.0316 µM
[26] = second compound 0.3 µM, first compound 0.1 µM
[27] = second compound 0.3 µM, first compound 0.316 µM
[28] = second compound 0.3 µM, first compound 1 µM
[29] = second compound 0.3 µM, first compound 3.16 µM
[30] = second compound 0.3 µM, first compound 10 µM

CC(C)n1c(=O)n(C)c2cnc3cc(F)c(-c4ccc(OCCCN5CCCCC5)nc4)cc3c21 + CC[C@@]1(O)C(=O)OCc2c1cc1n(c2=O)Cc2cc3c(CN(C)C)c(O)ccc3nc2-1
IC50 (second compound 0.003 µM): < 31.6 nM
IC50 (second compound 0.00949 µM): < 31.6 nM
IC50 (second compound 0.03 µM): < 31.6 nM
IC50 (second compound 0.0949 µM): < 31.6 nM
IC50 (second compound 0.3 µM): < 31.6 nM
viability, T/C [1]: 28.2%
viability, T/C [2]: 26.8%
viability, T/C [3]: 25%
viability, T/C [4]: 27.7%
viability, T/C [5]: 19.3%
viability, T/C [6]: 7.91%
viability, T/C [7]: 15.9%
viability, T/C [8]: 17.9%
viability, T/C [9]: 14.5%
viability, T/C [10]: 12.2%
viability, T/C [11]: 11.3%
viability, T/C [12]: 5.27%
viability, T/C [13]: 20.4%
viability, T/C [14]: 17.7%
viability, T/C [15]: 16%
viability, T/C [16]: 15.8%
viability, T/C [17]: 8.12%
viability, T/C [18]: 3.67%
viability, T/C [19]: 23.9%
viability, T/C [20]: 24.6%
viability, T/C [21]: 23.2%
viability, T/C [22]: 19.8%
viability, T/C [23]: 7.87%
viability, T/C [24]: 3.44%
viability, T/C [25]: 14.6%
viability, T/C [26]: 13.2%
viability, T/C [27]: 16.4%
viability, T/C [28]: 16.1%
viability, T/C [29]: 7.25%
viability, T/C [30]: 4.47%

Cn1ncnc1[C@H]1c2n[nH]c(=O)c3cc(F)cc(c23)N[C@@H]1c1ccc(F)cc1 + CC[C@@]1(O)C(=O)OCc2c1cc1n(c2=O)Cc2cc3c(CN(C)C)c(O)ccc3nc2-1
IC50 (second compound 0.003 µM): < 9.49 nM
IC50 (second compound 0.00949 µM): < 9.49 nM
IC50 (second compound 0.03 µM): < 9.49 nM
IC50 (second compound 0.0949 µM): < 9.49 nM
IC50 (second compound 0.3 µM): < 9.49 nM
viability, T/C (second compound 0.003 µM, first compound 0.00949 µM): 27.6%
viability, T/C (second compound 0.003 µM, first compound 0.03 µM): 23.9%
viability, T/C (second compound 0.003 µM, first compound 0.0949 µM): 21.4%
viability, T/C (second compound 0.003 µM, first compound 0.3 µM): 24.1%
viability, T/C (second compound 0.003 µM, first compound 0.949 µM): 23.4%
viability, T/C (second compound 0.003 µM, first compound 3 µM): 21.7%
viability, T/C (second compound 0.00949 µM, first compound 0.00949 µM): 26.2%
viability, T/C (second compound 0.00949 µM, first compound 0.03 µM): 27.6%
viability, T/C (second compound 0.00949 µM, first compound 0.0949 µM): 28.4%
viability, T/C (second compound 0.00949 µM, first compound 0.3 µM): 25.9%
viability, T/C (second compound 0.00949 µM, first compound 0.949 µM): 26.7%
viability, T/C (second compound 0.00949 µM, first compound 3 µM): 17.2%
viability, T/C (second compound 0.03 µM, first compound 0.00949 µM): 27.7%
viability, T/C (second compound 0.03 µM, first compound 0.03 µM): 28.3%
viability, T/C (second compound 0.03 µM, first compound 0.0949 µM): 24.2%
viability, T/C (second compound 0.03 µM, first compound 0.3 µM): 25.2%
viability, T/C (second compound 0.03 µM, first compound 0.949 µM): 25%
viability, T/C (second compound 0.03 µM, first compound 3 µM): 18%
viability, T/C (second compound 0.0949 µM, first compound 0.00949 µM): 22.6%
viability, T/C (second compound 0.0949 µM, first compound 0.03 µM): 27.9%
viability, T/C (second compound 0.0949 µM, first compound 0.0949 µM): 28.1%
viability, T/C (second compound 0.0949 µM, first compound 0.3 µM): 23.7%
viability, T/C (second compound 0.0949 µM, first compound 0.949 µM): 22%
viability, T/C (second compound 0.0949 µM, first compound 3 µM): 11.3%
viability, T/C (second compound 0.3 µM, first compound 0.00949 µM): 11.1%
viability, T/C (second compound 0.3 µM, first compound 0.03 µM): 16.5%
viability, T/C (second compound 0.3 µM, first compound 0.0949 µM): 11.4%
viability, T/C (second compound 0.3 µM, first compound 0.3 µM): 9.66%
viability, T/C (second compound 0.3 µM, first compound 0.949 µM): 6.32%
viability, T/C (second compound 0.3 µM, first compound 3 µM): 3.75%

[2H]c1nc(C)nc([2H])c1-c1cc(NC[C@@H](C)c2cccc3c(C(=O)NC)ccnc23)ncn1 + CC[C@@]1(O)C(=O)OCc2c1cc1n(c2=O)Cc2cc3c(CN(C)C)c(O)ccc3nc2-1
IC50 (second compound 0.003 µM): > 10000 nM
IC50 (second compound 0.00949 µM): 1350 nM
IC50 (second compound 0.03 µM): < 31.6 nM
IC50 (second compound 0.0949 µM): < 31.6 nM
IC50 (second compound 0.3 µM): < 31.6 nM
viability, T/C [1]: 94.2%
viability, T/C [2]: 90.5%
viability, T/C [3]: 95.4%
viability, T/C [4]: 94.6%
viability, T/C [5]: 88.9%
viability, T/C [6]: 79.9%
viability, T/C [7]: 58.9%
viability, T/C [8]: 51.1%
viability, T/C [9]: 58.7%
viability, T/C [10]: 48.3%
viability, T/C [11]: 47.9%
viability, T/C [12]: 39.4%
viability, T/C [13]: 36.5%
viability, T/C [14]: 35.3%
viability, T/C [15]: 34.5%
viability, T/C [16]: 36.6%
viability, T/C [17]: 34.2%
viability, T/C [18]: 31.6%
viability, T/C [19]: 34%
viability, T/C [20]: 32.6%
viability, T/C [21]: 30.1%
viability, T/C [22]: 31.4%
viability, T/C [23]: 33.1%
viability, T/C [24]: 26%
viability, T/C [25]: 19.9%
viability, T/C [26]: 17.5%
viability, T/C [27]: 15.1%
viability, T/C [28]: 17%
viability, T/C [29]: 14.2%
viability, T/C [30]: 8.53%
